Values joined by “and” are separate entries in the source; they are usually repeats but may differ in a detail not shown here. Identical values can stand only once.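 All cell lines were grown in 96-well plates and treated with compound for 48 hours. GI50: concentration for 50% inhibition of growth. Definition used: TGI = concentration required for complete inhibition of growth.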 Where a SMILES comes first, the peptide text is derived from it. [ ]: non-standard residue; d: D form. The star is where a group is joined. Phe(4-NO2) = N[CH](Cc1ccc([N+](=O)[O-])cc1)C(=O)O; Boc = CC(C)(C)OC(=O)*; OBn = c1ccc(CO*)cc1
How the values were obtained:
Test in all cases: NCI anticancer screen, dose series, 48 h
CCRF-CEM leukemia = test system: CCRF-CEM leukemia
NCI-H23 lung = test system: NCI-H23 lung
OVCAR-5 ovarian = test system: OVCAR-5 ovarian
RPMI-8226 leukemia = test system: RPMI-8226 leukemia
SF-295 CNS = test system: SF-295 CNS
UO-31 renal = test system: UO-31 renal
DU-145 prostate = test system: DU-145 prostate
MCF7 breast = test system: MCF7 breast
MDA-MB-435 = test system: MDA-MB-435
NCI/ADR-RES ovarian = test system: NCI/ADR-RES ovarian

Structure (SMILES) | TGI (CCRF-CEM leukemia) [µM] | TGI (NCI-H23 lung) [µM] | TGI (OVCAR-5 ovarian) | TGI (RPMI-8226 leukemia) [µM] | TGI (SF-295 CNS) [µM] | TGI (UO-31 renal) | TGI (DU-145 prostate) | TGI (MCF7 breast) [µM] | TGI (MDA-MB-435) [µM] | TGI (NCI/ADR-RES ovarian) [µM] | GI50 (MCF7 breast) [µM] | GI50 (MDA-MB-435) [µM] | GI50 (NCI-H23 lung) [µM] | GI50 (NCI/ADR-RES ovarian) [µM] | GI50 (OVCAR-5 ovarian) [µM] | GI50 (RPMI-8226 leukemia) [µM] | GI50 (CCRF-CEM leukemia) [µM] | GI50 (SF-295 CNS) [µM] | GI50 (UO-31 renal) [µM]
CCCCCc1cc(OC(=O)c2c(O)cc(OC)cc2CCCCC)cc(O)c1C(=O)O | 47.8 | 27.1 | 34.1 µM | 71.2 | 35.4 | 26.6 µM | – | – | – | – | – | – | – | – | – | – | – | – | –
CCC(C)[C@H](NC(=O)N[C@H](C)c1ccccc1)C(=O)OC (stereo partly drawn) | > 100 | > 100 | > 100 µM | > 100 | > 100 | > 100 µM | > 100 µM | > 100 | > 100 | – | – | – | – | – | – | – | – | – | –
COc1cc(-c2nc3cc(F)ccc3s2)ccc1O | > 100 | > 100 | > 100 µM | > 100 | > 100 | > 100 µM | > 100 µM | > 100 | > 100 | > 100 | – | – | – | – | – | – | – | – | –
CC(C)(C)OC(=O)n1cc(C2CNC(=O)C23CCC(=O)N3Cc2ccccc2)c2ccccc21 (stereo not drawn) | 55.7 | 57.1 | 40.8 µM | 40.8 | 35.3 | 49 µM | 55.4 µM | 80.3 | 42.3 | > 100 | – | – | – | – | – | – | – | – | –
CC(C)C[C@H](NC(=O)[C@H](Cc1cccc2ccccc12)NC(=O)N1CCOCC1)B(O)O | – | 0.0076 | 0.00534 µM and < 0.0405 µM | 0.00618 | – | 0.159 µM and 0.211 µM | 0.116 µM and < 0.0249 µM | 0.139 | 0.000308 | – | 0.000351 | 0.000136 | 0.00188 | 0.267 | 0.00186 | 0.000359 | – | – | –
COc1ccc2[nH]c3c(c2c1)CCN(C)CC3 | > 100 | > 100 | > 100 µM | > 100 | > 100 | – | – | – | – | – | – | – | – | – | – | – | – | – | –
COC(=O)CCC(NC(=O)OC(C)(C)C)C(=O)NC(Cc1ccc([N+](=O)[O-])cc1)C(=O)NCC(=O)OCc1ccccc1 (stereo not drawn) (Boc-Glu(OMe)-[Phe(4-NO2)]-Gly-OBn; configuration not given here) | > 100 | > 100 | > 100 µM | > 100 | > 74.1 | > 100 µM | > 100 µM | > 100 | > 100 | > 100 | – | – | – | – | – | – | – | – | –
O=C(CSc1nc2ccccc2[nH]1)Nc1ccc(-c2nc3ccccc3s2)c(Cl)c1 | > 100 | 4.27 | 13.6 µM | – | > 100 | 13.7 µM | – | > 100 | > 100 | > 100 | 3.58 | 3.89 | 1.88 | 4.41 | 3.63 | – | > 100 | 3.63 | 2.16
Cc1cc2c(cc1Cl)Sc1nnc(Nc3ccccc3)n1S2(=O)=O | – | 15.9 | > 100 µM | 6.91 | 49.6 | 41.8 µM | > 100 µM | 32.4 | 54.8 | 23.4 | – | – | – | – | – | – | – | – | –
CC(=O)c1ccc(N=Nc2ccc3nonc3c2N)cc1 | > 100 | > 100 | > 100 µM | > 100 | > 100 | > 100 µM | > 100 µM | > 100 | > 100 | > 100 | – | – | – | – | – | – | – | – | –

Source: PubChem BioAssay (NCI)
